According to ChEMBL document CHEMBL1148909, “Antineoplastic agents. 535. Isolation and structure of plakorstatins 1 and 2 from the Indo-Pacific sponge Plakortis nigra” (2004):
Values after ≈ are worked out from the molar mass of the structure shown.

System: P388
Assay: Growth inhibition of mouse P388 cells
Assay type: functional
Conditions: read-out: ED50 (the source's name)

Structure (SMILES)	EC50
CC/C(=C\[C@@]1(CC)C[C@H](CC)[C@H](CC(=O)OC)OO1)[C@H]1O[C@H]1CC (single isomer, unassigned) [PLAKORSTATIN 1]	1.1 µg/mL (≈ 3.23 µM)
CC/C(=C\[C@@]1(CC)C[C@H](CC)[C@H](CC(=O)OC)OO1)[C@@H]1O[C@@H]1CC (single isomer, unassigned) [PLAKORSTATIN 2]	0.91 µg/mL (≈ 2.67 µM)
